# Results from the kinase profiling compilation of Christmann-Franck et al. (2016).
# “And” between values parts separate entries of the source, which are not always exact repeats. Identical values can stand only once.
# Experiments:
# Experiment in all cases: radiometric filter-binding kinase assay, Kinase HotSpot
# Conditions in all cases: compound 0.5 µM; ATP 10 µM
# PRKG1 (human) = PRKG1 (human) (UniProt Q13976)
# AURKA (human) = AURKA (human) (UniProt O14965)
# CAMKK1 (human) = CAMKK1 (human) (UniProt Q8N5S9)
# CHEK2 (human) = CHEK2 (human) (UniProt O96017)
# PNCK (human) = PNCK (human) (UniProt Q6P2M8)
# NTRK1 (human) = NTRK1 (human) (UniProt P04629)
# MARK1 (human) = MARK1 (human) (UniProt Q9P0L2)
# MAP3K2 (human) = MAP3K2 (human) (UniProt Q9Y2U5)
# RPS6KB1 (human) = RPS6KB1 (human) (UniProt P23443)
# Chain of RPS6KB1 (human) (P23443 whole entry, looked up): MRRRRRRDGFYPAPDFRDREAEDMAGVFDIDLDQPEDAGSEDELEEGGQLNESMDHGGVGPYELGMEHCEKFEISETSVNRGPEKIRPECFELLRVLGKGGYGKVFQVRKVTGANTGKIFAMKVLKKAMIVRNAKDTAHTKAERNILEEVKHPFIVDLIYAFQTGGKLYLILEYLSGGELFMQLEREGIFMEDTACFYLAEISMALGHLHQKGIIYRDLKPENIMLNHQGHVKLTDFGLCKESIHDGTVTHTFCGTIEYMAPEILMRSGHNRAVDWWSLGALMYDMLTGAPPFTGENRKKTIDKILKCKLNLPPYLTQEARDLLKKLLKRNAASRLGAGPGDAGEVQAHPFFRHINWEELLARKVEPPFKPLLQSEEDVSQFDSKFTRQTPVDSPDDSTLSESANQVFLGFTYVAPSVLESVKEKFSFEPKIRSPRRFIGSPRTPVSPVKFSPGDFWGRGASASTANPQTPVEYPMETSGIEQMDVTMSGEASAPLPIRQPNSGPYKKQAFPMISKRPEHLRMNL
# FGFR2 (human) = FGFR2 (human) (UniProt P21802)
# PKN1 (human) = PKN1 (human) (UniProt Q16512)
# PRKCH (human) = PRKCH (human) (UniProt P24723)
# MAPK3 (human) = MAPK3 (human) (UniProt P27361)
# ROS1 (human) = ROS1 (human) (UniProt P08922)
# Chain of ROS1 (human) (P08922 whole entry, looked up): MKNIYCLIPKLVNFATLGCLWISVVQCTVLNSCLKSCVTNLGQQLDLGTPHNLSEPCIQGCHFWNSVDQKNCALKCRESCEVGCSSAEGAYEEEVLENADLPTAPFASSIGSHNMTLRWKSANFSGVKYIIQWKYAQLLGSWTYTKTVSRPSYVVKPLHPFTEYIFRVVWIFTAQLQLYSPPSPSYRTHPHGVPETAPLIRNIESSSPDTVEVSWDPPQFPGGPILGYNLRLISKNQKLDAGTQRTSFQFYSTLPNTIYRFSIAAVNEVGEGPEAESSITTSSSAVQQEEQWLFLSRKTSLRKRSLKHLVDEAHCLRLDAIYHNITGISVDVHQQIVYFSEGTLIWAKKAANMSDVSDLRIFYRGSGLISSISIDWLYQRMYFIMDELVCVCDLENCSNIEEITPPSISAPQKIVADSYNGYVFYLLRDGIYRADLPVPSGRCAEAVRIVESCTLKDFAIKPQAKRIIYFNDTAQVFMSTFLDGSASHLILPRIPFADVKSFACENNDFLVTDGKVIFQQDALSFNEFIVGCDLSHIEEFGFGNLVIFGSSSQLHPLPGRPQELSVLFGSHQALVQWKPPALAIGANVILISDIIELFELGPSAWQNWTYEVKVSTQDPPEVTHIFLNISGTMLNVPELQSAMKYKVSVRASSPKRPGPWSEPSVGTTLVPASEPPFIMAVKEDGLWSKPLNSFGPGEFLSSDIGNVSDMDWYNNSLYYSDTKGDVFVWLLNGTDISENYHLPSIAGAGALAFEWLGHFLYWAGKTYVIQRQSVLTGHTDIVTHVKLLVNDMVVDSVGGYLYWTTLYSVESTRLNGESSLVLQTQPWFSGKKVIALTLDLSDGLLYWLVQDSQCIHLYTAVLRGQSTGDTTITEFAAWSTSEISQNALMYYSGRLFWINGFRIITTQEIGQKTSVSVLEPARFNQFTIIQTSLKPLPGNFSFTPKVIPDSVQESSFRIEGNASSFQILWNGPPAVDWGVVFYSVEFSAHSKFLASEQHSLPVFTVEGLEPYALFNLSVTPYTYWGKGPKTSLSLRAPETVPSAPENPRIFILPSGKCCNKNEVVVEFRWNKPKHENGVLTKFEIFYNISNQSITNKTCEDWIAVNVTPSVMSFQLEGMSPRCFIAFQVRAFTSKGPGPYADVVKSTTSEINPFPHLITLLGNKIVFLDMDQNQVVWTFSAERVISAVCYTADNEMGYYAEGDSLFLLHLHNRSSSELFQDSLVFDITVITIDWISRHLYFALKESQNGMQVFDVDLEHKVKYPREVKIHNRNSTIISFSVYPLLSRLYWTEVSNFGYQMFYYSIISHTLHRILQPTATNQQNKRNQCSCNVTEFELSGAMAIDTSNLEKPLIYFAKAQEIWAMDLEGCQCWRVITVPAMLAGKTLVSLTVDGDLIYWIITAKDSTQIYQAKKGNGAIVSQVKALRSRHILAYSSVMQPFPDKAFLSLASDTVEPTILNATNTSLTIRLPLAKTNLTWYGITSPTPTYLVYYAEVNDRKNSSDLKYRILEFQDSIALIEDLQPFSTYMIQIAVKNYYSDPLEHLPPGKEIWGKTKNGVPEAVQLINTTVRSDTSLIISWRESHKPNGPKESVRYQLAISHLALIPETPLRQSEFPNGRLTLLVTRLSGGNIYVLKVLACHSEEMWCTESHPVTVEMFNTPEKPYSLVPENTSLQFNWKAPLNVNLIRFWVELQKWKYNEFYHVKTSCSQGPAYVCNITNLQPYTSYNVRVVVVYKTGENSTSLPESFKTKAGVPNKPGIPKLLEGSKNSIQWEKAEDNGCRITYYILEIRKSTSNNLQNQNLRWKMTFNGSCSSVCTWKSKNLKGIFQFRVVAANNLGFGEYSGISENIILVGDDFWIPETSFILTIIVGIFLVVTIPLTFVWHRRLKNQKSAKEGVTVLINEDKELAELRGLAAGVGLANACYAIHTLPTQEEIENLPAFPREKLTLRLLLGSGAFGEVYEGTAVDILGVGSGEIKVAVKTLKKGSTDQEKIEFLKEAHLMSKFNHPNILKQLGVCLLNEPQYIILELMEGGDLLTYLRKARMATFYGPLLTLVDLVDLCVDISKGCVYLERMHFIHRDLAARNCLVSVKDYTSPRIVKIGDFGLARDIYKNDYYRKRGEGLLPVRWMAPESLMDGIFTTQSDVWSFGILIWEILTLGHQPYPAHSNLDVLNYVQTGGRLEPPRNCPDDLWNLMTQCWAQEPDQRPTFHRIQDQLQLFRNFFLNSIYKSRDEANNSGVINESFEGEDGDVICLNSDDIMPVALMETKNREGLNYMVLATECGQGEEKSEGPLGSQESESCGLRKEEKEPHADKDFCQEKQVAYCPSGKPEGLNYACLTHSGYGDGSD
# GSK3B (human) = GSK3B (human) (UniProt P49841)
# CDK1 CCNB1 (human) = CDK1 CCNB1 (human) (UniProt P06493+P14635)
# MYO3B (human) = MYO3B (human) (UniProt Q8WXR4)
# EPHA3 (human) = EPHA3 (human) (UniProt P29320)
# SYK (human) = SYK (human) (UniProt P43405)
# CDK9 CCNK (human) = CDK9 CCNK (human) (UniProt O75909+P50750)
# EPHA1 (human) = EPHA1 (human) (UniProt P21709)
# ULK3 (human) = ULK3 (human) (UniProt Q6PHR2)
# CAMK2G (human) = CAMK2G (human) (UniProt Q13555)
# FGR (human) = FGR (human) (UniProt P09769)
# FYN (human) = FYN (human) (UniProt P06241)
# MAPKAPK3 (human) = MAPKAPK3 (human) (UniProt Q16644)
# Chain of MAPKAPK3 (human) (Q16644 whole entry, looked up): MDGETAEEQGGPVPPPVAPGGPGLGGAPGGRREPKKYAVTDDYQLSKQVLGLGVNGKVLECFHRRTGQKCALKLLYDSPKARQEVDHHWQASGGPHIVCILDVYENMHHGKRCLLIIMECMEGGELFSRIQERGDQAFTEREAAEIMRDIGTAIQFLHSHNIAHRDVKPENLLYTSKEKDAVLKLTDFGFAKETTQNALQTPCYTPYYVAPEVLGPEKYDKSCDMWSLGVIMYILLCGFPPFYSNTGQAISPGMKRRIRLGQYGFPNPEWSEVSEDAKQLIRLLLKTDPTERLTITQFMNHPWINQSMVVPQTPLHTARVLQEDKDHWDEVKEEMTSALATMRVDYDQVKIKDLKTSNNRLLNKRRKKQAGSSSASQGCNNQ
# PAK1 (human) = PAK1 (human) (UniProt Q13153)
# CAMKK2 (human) = CAMKK2 (human) (UniProt Q96RR4)
# MAPK14 (human) = MAPK14 (human) (UniProt Q16539)
# FRK (human) = FRK (human) (UniProt P42685)
# LTK (human) = LTK (human) (UniProt P29376)
# DAPK3 (human) = DAPK3 (human) (UniProt O43293)
# CDK5 CDK5R1 p35 (human) = CDK5 CDK5R1 p35 (human) (UniProt Q00535+Q15078)
# PRKCE (human) = PRKCE (human) (UniProt Q02156)
# DYRK1B (human) = DYRK1B (human) (UniProt Q9Y463)
# Chain of DYRK1B (human) (Q9Y463 whole entry, looked up): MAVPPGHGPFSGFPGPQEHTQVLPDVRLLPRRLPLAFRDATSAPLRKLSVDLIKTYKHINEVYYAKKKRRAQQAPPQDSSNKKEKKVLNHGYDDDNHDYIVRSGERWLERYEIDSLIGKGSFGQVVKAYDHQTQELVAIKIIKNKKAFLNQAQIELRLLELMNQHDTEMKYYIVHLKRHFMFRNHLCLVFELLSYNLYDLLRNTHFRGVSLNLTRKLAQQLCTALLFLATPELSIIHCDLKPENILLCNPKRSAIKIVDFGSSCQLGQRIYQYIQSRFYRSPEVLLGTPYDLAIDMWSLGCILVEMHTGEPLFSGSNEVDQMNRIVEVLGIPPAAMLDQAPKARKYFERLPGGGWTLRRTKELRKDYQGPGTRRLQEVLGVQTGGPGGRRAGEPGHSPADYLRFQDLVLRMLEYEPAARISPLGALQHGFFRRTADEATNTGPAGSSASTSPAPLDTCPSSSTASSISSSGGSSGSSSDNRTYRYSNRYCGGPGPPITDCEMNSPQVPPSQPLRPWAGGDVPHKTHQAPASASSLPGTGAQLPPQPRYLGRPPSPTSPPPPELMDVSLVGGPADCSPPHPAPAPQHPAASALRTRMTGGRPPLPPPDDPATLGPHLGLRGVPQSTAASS
# CSNK1G2 (human) = CSNK1G2 (human) (UniProt P78368)
# PAK7 (human) = PAK7 (human) (UniProt Q9P286)
# MYLK2 (human) = MYLK2 (human) (UniProt Q9H1R3)
# Chain of MYLK2 (human) (Q9H1R3 whole entry, looked up): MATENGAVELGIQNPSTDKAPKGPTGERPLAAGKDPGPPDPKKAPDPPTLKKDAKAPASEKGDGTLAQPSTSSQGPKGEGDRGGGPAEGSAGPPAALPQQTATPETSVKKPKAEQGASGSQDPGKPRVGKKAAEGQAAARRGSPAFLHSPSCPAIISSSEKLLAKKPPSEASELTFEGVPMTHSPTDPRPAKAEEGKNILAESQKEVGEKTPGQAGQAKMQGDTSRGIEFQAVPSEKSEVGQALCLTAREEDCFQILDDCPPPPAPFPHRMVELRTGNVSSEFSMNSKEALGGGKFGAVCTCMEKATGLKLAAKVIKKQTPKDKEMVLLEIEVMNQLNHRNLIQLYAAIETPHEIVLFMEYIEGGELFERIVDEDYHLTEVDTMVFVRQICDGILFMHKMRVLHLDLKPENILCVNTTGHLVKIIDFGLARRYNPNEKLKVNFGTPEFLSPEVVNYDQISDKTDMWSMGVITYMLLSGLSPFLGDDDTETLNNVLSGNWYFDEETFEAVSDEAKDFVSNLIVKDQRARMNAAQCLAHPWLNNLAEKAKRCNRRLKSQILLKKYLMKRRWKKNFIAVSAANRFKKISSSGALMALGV
# MELK (human) = MELK (human) (UniProt Q14680)
# GRK6 (human) = GRK6 (human) (UniProt P43250)
# Chain of GRK6 (human) (P43250 whole entry, looked up): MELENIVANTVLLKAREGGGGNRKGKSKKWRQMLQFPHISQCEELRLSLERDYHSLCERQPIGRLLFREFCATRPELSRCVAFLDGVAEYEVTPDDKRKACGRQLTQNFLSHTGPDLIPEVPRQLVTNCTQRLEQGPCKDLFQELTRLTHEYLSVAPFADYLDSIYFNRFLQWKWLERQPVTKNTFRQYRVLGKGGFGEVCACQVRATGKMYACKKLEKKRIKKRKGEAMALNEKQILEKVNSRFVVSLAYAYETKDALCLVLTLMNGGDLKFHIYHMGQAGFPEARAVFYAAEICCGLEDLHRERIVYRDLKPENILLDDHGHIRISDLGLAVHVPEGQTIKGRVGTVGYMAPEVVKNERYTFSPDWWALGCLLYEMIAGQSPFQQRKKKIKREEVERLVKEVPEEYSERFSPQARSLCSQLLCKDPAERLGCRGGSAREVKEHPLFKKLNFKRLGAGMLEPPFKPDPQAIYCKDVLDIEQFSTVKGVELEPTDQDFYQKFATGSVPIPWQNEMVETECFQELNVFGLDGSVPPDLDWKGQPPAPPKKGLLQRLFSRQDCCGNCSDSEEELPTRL
# PLK3 (human) = PLK3 (human) (UniProt Q9H4B4)
# ULK1 (human) = ULK1 (human) (UniProt O75385)
compound,measurement,setting,value
c1ccc(-c2n[nH]cc2-c2ccnc3ccccc23)nc1,residual activity,PRKG1 (human),86% and 92.7%
same,residual activity,AURKA (human),95.4%
same,residual activity,CAMKK1 (human),109%
same,residual activity,CHEK2 (human),96.6%
same,residual activity,PNCK (human),98.3%
same,residual activity,NTRK1 (human),102%
same,residual activity,MARK1 (human),79.2%
same,residual activity,MAP3K2 (human),91.2%
same,residual activity,RPS6KB1 (human),106%
same,residual activity,FGFR2 (human),110%
same,residual activity,PKN1 (human),100%
same,residual activity,PRKCH (human),94.6%
same,residual activity,MAPK3 (human),101%
same,residual activity,ROS1 (human),102%
same,residual activity,GSK3B (human),95.2%
same,residual activity,CDK1 CCNB1 (human),106%
same,residual activity,MYO3B (human),91.7%
same,residual activity,EPHA3 (human),99.3%
same,residual activity,SYK (human),99.7%
same,residual activity,CDK9 CCNK (human),98.7%
same,residual activity,EPHA1 (human),97.7%
same,residual activity,ULK3 (human),85.3%
same,residual activity,CAMK2G (human),85.9%
same,residual activity,FGR (human),91.9%
same,residual activity,FYN (human),110%
same,residual activity,MAPKAPK3 (human),92.9%
same,residual activity,PAK1 (human),96.3%
same,residual activity,CAMKK2 (human),97%
same,residual activity,MAPK14 (human),96%
same,residual activity,FRK (human),92.8%
same,residual activity,LTK (human),92.8%
same,residual activity,DAPK3 (human),101%
same,residual activity,CDK5 CDK5R1 p35 (human),98.6%
same,residual activity,PRKCE (human),101%
same,residual activity,DYRK1B (human),102%
same,residual activity,CSNK1G2 (human),103%
same,residual activity,PAK7 (human),97.1%
same,residual activity,MYLK2 (human),98.3%
same,residual activity,MELK (human),93.3%
same,residual activity,GRK6 (human),94.6%
same,residual activity,PLK3 (human),91.7%
same,residual activity,ULK1 (human),85.9%
CC(C)N(CCC(=O)c1ccc2ccccc2c1)Cc1ccccc1,residual activity,PRKG1 (human),101% and 102%
same,residual activity,AURKA (human),104%
same,residual activity,CAMKK1 (human),104%
same,residual activity,CHEK2 (human),87.5%
same,residual activity,PNCK (human),102%
same,residual activity,NTRK1 (human),94.8%
same,residual activity,MARK1 (human),97.7%
same,residual activity,MAP3K2 (human),107%
same,residual activity,RPS6KB1 (human),97.2%
same,residual activity,FGFR2 (human),107%
same,residual activity,PKN1 (human),107%
same,residual activity,PRKCH (human),97.3%
same,residual activity,MAPK3 (human),98.5%
same,residual activity,ROS1 (human),113%
same,residual activity,GSK3B (human),94.9%
same,residual activity,CDK1 CCNB1 (human),104%
same,residual activity,MYO3B (human),93.5%
same,residual activity,EPHA3 (human),85%
same,residual activity,SYK (human),101%
same,residual activity,CDK9 CCNK (human),99.5%
same,residual activity,EPHA1 (human),92.4%
same,residual activity,ULK3 (human),95.8%
same,residual activity,CAMK2G (human),97.7%
same,residual activity,FGR (human),94.2%
same,residual activity,FYN (human),95.3%
same,residual activity,MAPKAPK3 (human),95.7%
same,residual activity,PAK1 (human),98.3%
same,residual activity,CAMKK2 (human),85.2%
same,residual activity,MAPK14 (human),94.4%
same,residual activity,FRK (human),95.8%
same,residual activity,LTK (human),103%
same,residual activity,DAPK3 (human),107%
same,residual activity,CDK5 CDK5R1 p35 (human),103%
same,residual activity,PRKCE (human),95%
same,residual activity,DYRK1B (human),101%
same,residual activity,CSNK1G2 (human),104%
same,residual activity,PAK7 (human),98.5%
same,residual activity,MYLK2 (human),100%
same,residual activity,MELK (human),99.4%
same,residual activity,GRK6 (human),87.1%
same,residual activity,PLK3 (human),105%
same,residual activity,ULK1 (human),104%
CNc1cc2c(Nc3cccc(Br)c3)ncnc2cn1,residual activity,PRKG1 (human),107% and 92.7%
same,residual activity,AURKA (human),85.1%
same,residual activity,CAMKK1 (human),92.6%
same,residual activity,CHEK2 (human),85.7%
same,residual activity,PNCK (human),100%
same,residual activity,NTRK1 (human),95.9%
same,residual activity,MARK1 (human),96.1%
same,residual activity,MAP3K2 (human),74.9%
same,residual activity,RPS6KB1 (human),97.4%
same,residual activity,FGFR2 (human),96.3%
same,residual activity,PKN1 (human),103%
same,residual activity,PRKCH (human),95.7%
same,residual activity,MAPK3 (human),97.3%
same,residual activity,ROS1 (human),89.1%
same,residual activity,GSK3B (human),89.6%
same,residual activity,CDK1 CCNB1 (human),104%
same,residual activity,MYO3B (human),91.1%
same,residual activity,EPHA3 (human),96.1%
same,residual activity,SYK (human),95.3%
same,residual activity,CDK9 CCNK (human),105%
same,residual activity,EPHA1 (human),103%
same,residual activity,ULK3 (human),95.8%
same,residual activity,CAMK2G (human),105%
same,residual activity,FGR (human),88.3%
same,residual activity,FYN (human),91.7%
same,residual activity,MAPKAPK3 (human),99.2%
same,residual activity,PAK1 (human),94.9%
same,residual activity,CAMKK2 (human),80%
same,residual activity,MAPK14 (human),90%
same,residual activity,FRK (human),91.2%
same,residual activity,LTK (human),76.2%
same,residual activity,DAPK3 (human),90.9%
same,residual activity,CDK5 CDK5R1 p35 (human),100%
same,residual activity,PRKCE (human),99.8%
same,residual activity,DYRK1B (human),92.3%
same,residual activity,CSNK1G2 (human),95.8%
same,residual activity,PAK7 (human),90.8%
same,residual activity,MYLK2 (human),97.3%
same,residual activity,MELK (human),91.6%
same,residual activity,GRK6 (human),91.1%
same,residual activity,PLK3 (human),96.4%
same,residual activity,ULK1 (human),98.8%
